Data on 61 molecules can be found in patent US8604016B2, “Heterocyclic inhibitors of glutaminase” (Calithera Biosciences Inc., priority 2011, dated 2013).

In the experiment the target is recombinant form of Glutaminase 1 (GAC) (Homo sapiens, UniProt O94925). The experiment is described as follows: Recombinant Enzyme Assay (GAC coupled to GDH, NADH absorbance, no preincubation). Format: biochemical. The following applies: no preincubation; read-out: GAC Delta N2 IC50 no preinc. Here is the method: Enzymatic reaction was started with the addition of 50 μL of enzyme solution (50 mM Tris-HCl pH 8.0, 0.2 mM EDTA, 150 mM K2HPO4, 0.1 mg/ml BSA, 1 mM DTT, 10 ppm antifoam, 4 units/ml GDH, 4 mM adenosine diphosphate, and 4 nM GAC) and read in a Molecular Devices M5 plate reader at 20° C. The plate reader was configured to read absorbance (λ=340 nm) in kinetic mode for 15 minutes. Data was recorded as milli-absorbance units per minute and slopes were compared to a control compound and a DMSO-only control on the same plate. Compounds with slopes less than the DMSO control were considered inhibitors and plate variability was assessed using the control compound.
`O=C(CC1CC1)Nc1nnc(CCCCc2nnc(NC(=O)CC3CC3)s2)s1` [Compound 85]: the IC50 was determined as 1.5 µM.
The figure for `CC1(C(=O)Nc2nnc(CCCCc3nnc(NC(=O)C4(C)CCCO4)s3)s2)CCCO1` (stereo not shown) [Compound 123] is 12 µM.
The figure for `O=C(COc1ccccc1)Nc1nnc(CCCCc2nnc(NC(=O)COc3ccccc3)s2)s1` [Compound 43] is 2.3 µM; for `O=C(Nc1nnc(CCCCc2nnc(NC(=O)C3CCCC3)s2)s1)C1CCCC1` [Compound 53] it is above 50 µM.
The figure for `O=C(CC1CCCNC1)Nc1nnc(CCSCCc2nnc(NC(=O)CC3CCCNC3)s2)s1` (stereo not shown) [Compound 124] is above 20 µM.
In the case of `CC1(C)OCC(C(=O)Nc2nnc(CCCCc3nnc(NC(=O)Cc4ccccc4)s3)s2)(c2ccccc2)O1` (stereo not shown) [Compound 279], the IC50 stood at 0.68 µM.
The figure for `O=C1CC(C(=O)Nc2nnc(CCCCc3nnc(NC(=O)C4CC(=O)c5ccccc54)s3)s2)c2ccccc21` (stereo not shown) [Compound 64] is 1.3 µM.
In the case of `O=C(Cc1cccc(-n2cccn2)c1)Nc1nnc(CCCCc2nnc(NC(=O)Cc3cccc(-n4cccn4)c3)s2)s1` [Compound 285], the IC50 worked out at 0.19 µM.
The figure for `O=C(Nc1nnc(CCCCc2nnc(NC(=O)C3Cc4ccccc4O3)s2)s1)C1Cc2ccccc2O1` (stereo not shown) [Compound 51] is 1.2 µM; for `COCOCCOC(C(=O)Nc1nnc(CCCCc2nnc(NC(=O)C(OCCOCOC)c3ccccc3)s2)s1)c1ccccc1` (stereo not shown) [Compound 251] it is 2.8 µM; for `Cc1cccc(CC(=O)Nc2nnc(CCSCCc3nnc(NC(=O)Cc4cccc(C)c4)s3)s2)c1` [Compound 247] it is 0.19 µM.
As for `CC(C)(C)OC(=O)Nc1cccc(CC(=O)Nc2nnc(CCSCCc3nnc(NC(=O)Cc4cccc(NC(=O)OC(C)(C)C)c4)s3)s2)c1` [Compound 98], the IC50 was above 20 µM.
The figure for `O=C(Cc1ccccc1)Nc1nnc(CCSCCc2nnc(NC(=O)Cc3ccccn3)s2)s1` [Compound 359] is 0.38 µM; for `O=C(CCN1CCOCC1)OC(C(=O)Nc1nnc(CCCCc2nnc(NC(=O)C(O)c3cccc(Cl)c3)s2)s1)c1cccc(Cl)c1` (stereo not shown) [Compound 358] it is 1.4 µM; for `COc1cccc(C(CO)C(=O)Nc2nnc(CCCCc3nnc(NC(=O)C(CO)c4cccc(OC)c4)s3)s2)c1` (stereo not shown) [Compound 257] it is 0.12 µM.
The figure for `O=C(CN1C(=O)OC[C@@H]1c1ccccc1)Nc1nnc(CCSCCc2nnc(NC(=O)CN3C(=O)OC[C@@H]3c3ccccc3)s2)s1` [Compound 197] is 6.9 µM; for `COC(=O)C(C(=O)Nc1nnc(CCCCc2nnc(NC(=O)C(C(=O)OC)c3ccccc3)s2)s1)c1ccccc1` (stereo not shown) [Compound 220] it is 1.6 µM.
The figure for `O=C(Nc1nnc(CCCCc2nnc(NC(=O)C3COc4ccccc4O3)s2)s1)C1COc2ccccc2O1` (stereo not shown) [Compound 52] is 8.3 µM; for `O=C(CC1CCCCC1)Nc1nnc(CCSCCc2nnc(NC(=O)CC3CCCCC3)s2)s1` [Compound 48] it is above 50 µM.
With `O=C(Nc1nnc(CCCCc2nnc(NC(=O)C(c3ccccc3)N3CCNCC3)s2)s1)C(c1ccccc1)N1CCNCC1` (stereo not shown) [Compound 77], the IC50 amounted to 6.1 µM.
The value for `O=C(Nc1nnc(CCCCc2nnc(NC(=O)C(O)c3ccccc3)s2)s1)C(O)c1ccccc1` (stereo not shown) [Compound 174] was 0.29 µM.
The value for `O=C(Nc1nnc(CCCCc2nnc(NC(=O)C(O)Cc3ccccc3)s2)s1)C(O)Cc1ccccc1` (stereo not shown) [Compound 69] was 0.69 µM; that for `O=C(Cc1ccccc1)Nc1nnc(CCSCCc2nnc(NC(=O)Cc3cccnc3)s2)s1` [Compound 347] was 0.22 µM; that for `CC1(C(=O)Nc2nnc(CCSCCc3nnc(NC(=O)C4(C)CCCO4)s3)s2)CCCO1` (stereo not shown) [Compound 119] was above 20 µM.
The value for `O=C(Nc1nnc(CCSCCc2nnc(NC(=O)C3C[C@@H]3c3ccccc3)s2)s1)C1C[C@@H]1c1ccccc1` (stereo partly shown) [Compound 91] was above 20 µM; that for `O=C(Nc1nnc(CCCCc2nnc(NC(=O)[C@H](O)c3ccccc3)s2)s1)[C@H](O)c1ccccc1` [Compound 80] was 1.8 µM; that for `CC(=O)O[C@H](C(=O)Nc1nnc(CCCCc2nnc(NC(=O)[C@@H](OC(C)=O)c3ccccc3)s2)s1)c1ccccc1` [Compound 66] was 20 µM.
As to `O=C(Nc1nnc(CCCCc2nnc(NC(=O)C(O)(CO)c3ccccc3)s2)s1)C(O)(CO)c1ccccc1` (stereo not shown) [Compound 278], the IC50 worked out at 0.38 µM.
As to `O=C(Nc1nnc(CCSCCc2nnc(NC(=O)C3(C(F)(F)F)CC3)s2)s1)C1(C(F)(F)F)CC1` [Compound 59], the IC50 is above 50 µM.
The value for `CC(C)(CCc1nnc(NC(=O)Cc2ccccc2)s1)CCc1nnc(NC(=O)Cc2ccccc2)s1` [Compound 10] was above 50 µM; that for `CC[C@](O)(C(=O)Nc1nnc(CCSCCc2nnc(NC(=O)[C@@](O)(CC)c3ccccc3)s2)s1)c1ccccc1` [Compound 141] was 1.7 µM.
The figure for `CC(=O)OC(C)(C)C(=O)Nc1nnc(CCCCc2nnc(NC(=O)C(C)(C)OC(C)=O)s2)s1` [Compound 96] is above 20 µM; for `CC(C)(C)OC(=O)Nc1ccc(CC(=O)Nc2nnc(CCSCCc3nnc(NC(=O)Cc4ccc(NC(=O)OC(C)(C)C)cc4)s3)s2)cc1` [Compound 185] it is above 20 µM.
The figure for `O=C(C[C@@H](O)c1ccccc1)Nc1nnc(CCCCc2nnc(NC(=O)C[C@@H](O)c3ccccc3)s2)s1` [Compound 127] is 1.8 µM; for `C=C(C(=O)Nc1nnc(CCCCc2nnc(NC(=O)C(COC(=O)CCN3CCOCC3)c3ccccc3)s2)s1)c1ccccc1` (stereo not shown) [Compound 281] it is 0.74 µM.
For the molecule `CCOC(=O)Nc1nnc(CCCCc2nnc(NC(=O)Cc3ccccc3)s2)s1` [Compound 369], the IC50 amounted to 0.81 µM.
The figure for `CCN(C(=O)Cc1ccccc1)c1nnc(CCSCCc2nnc(N(CC)C(=O)Cc3ccccc3)s2)s1` [Compound 150] is above 20 µM; for `O=C(Nc1nnc(CCSCCc2nnc(NC(=O)[C@@H](O)c3ccccc3)s2)s1)[C@@H](O)c1ccccc1` [Compound 93] it is 0.9 µM; for `COC(=O)c1cccc(NC(=O)Nc2nnc(CCSCCc3nnc(NC(=O)Nc4cccc(C(=O)OC)c4)s3)s2)c1` [Compound 31] it is above 50 µM.
The figure for `CC(=O)NCC(C(=O)Nc1nnc(CCSCCc2nnc(NC(=O)C(CNC(C)=O)c3ccccc3)s2)s1)c1ccccc1` (stereo not shown) [Compound 232] is 9.8 µM; for `O=C(Cc1cccnc1)Nc1nnc(CCCCc2nnc(NC(=O)Cc3cccnc3)s2)s1` [Compound 311] it is 0.2 µM; for `N[C@@H](C(=O)Nc1nnc(CCSCCc2nnc(NC(=O)[C@H](N)c3ccccc3)s2)s1)c1ccccc1` [Compound 47] it is 8.3 µM.
The figure for `O=C(Cc1cc2ccccc2s1)Nc1nnc(CCCCc2nnc(NC(=O)Cc3cc4ccccc4s3)s2)s1` [Compound 233] is 15 µM; for `Cc1nccn1Cc1cccc(CC(=O)Nc2nnc(CCCCc3nnc(NC(=O)Cc4cccc(Cn5ccnc5C)c4)s3)s2)c1` [Compound 296] it is 0.1 µM.
In the case of `O=C(Cc1coc2ccccc12)Nc1nnc(CCCCc2nnc(NC(=O)Cc3coc4ccccc34)s2)s1` [Compound 222], the IC50 was above 20 µM.
With `COCCOC(C(=O)Nc1nnc(CCCCc2nnc(NC(=O)C(OCCOC)c3ccccc3)s2)s1)c1ccccc1` (stereo not shown) [Compound 203], the IC50 is 1.7 µM.
As for `CN(C)c1ccc(CC(=O)Nc2nnc(CCCCc3nnc(NC(=O)Cc4ccc(N(C)C)cc4)s3)s2)cc1` [Compound 164], the IC50 was 0.24 µM.
The value for `CC(C)(C)C(=O)OCN(C(=O)Cc1ccccc1)c1nnc(CCSCCc2nnc(N(COC(=O)C(C)(C)C)C(=O)Cc3ccccc3)s2)s1` [Compound 16] was above 50 µM; that for `O=C(Cc1ccccc1)Nc1nnc(CCSCc2nnc(NC(=O)Cc3cccc(OCCN4CCOCC4)c3)s2)s1` [Compound 378] was 0.22 µM.
As for `CC(C)(C)C(=O)OCN(C(=O)Cc1ccccc1)c1nnc(CCSCCc2nnc(NC(=O)Cc3ccccc3)s2)s1` [Compound 15], the IC50 was above 50 µM.
The value for `O=C(Nc1nnc(CCCCc2nnc(NC(=O)[C@@H](O)c3ccccc3Cl)s2)s1)[C@@H](O)c1ccccc1Cl` [Compound 210] was 0.38 µM.
The value for `O=C(Cc1ccccc1)Nc1nnc(CCSCc2nnc(NC(=O)Cc3ccccc3)s2)s1` [Compound 199] was 0.12 µM; that for `O=C(Cc1ccccc1)Nc1nnc(CCCCc2nnc(NC(=O)Cc3c(Cl)ccc(O)c3F)s2)s1` [Compound 345] was 0.16 µM.
`O=C(Cc1ccccc1)Nc1nnc(CCSCc2nnc(NC(=O)[C@@H](O)c3ccccc3)s2)s1` [Compound 377]: the IC50 stood at 0.28 µM.
The value for `CC(C)(C)OC(=O)N1CCCC(CC(=O)Nc2nnc(CCSCCc3nnc(NC(=O)CC4CCCN(C(=O)OC(C)(C)C)C4)s3)s2)C1` (stereo not shown) [Compound 112] was 0.51 µM.
The figure for `O=C(Nc1nnc(CCCCc2nnc(NC(=O)[C@@H](O)Cc3ccccc3)s2)s1)[C@@H](O)Cc1ccccc1` [Compound 146] is 0.43 µM; for `O=C(Cc1cccc(Br)c1)Nc1nnc(CCCCc2nnc(NC(=O)Cc3cccc(Br)c3)s2)s1` [Compound 284] it is above 20 µM; for `CC(C)(C)OC(=O)N1CCN(C(C(=O)Nc2nnc(CCSCCc3nnc(NC(=O)Cc4ccccc4)s3)s2)c2ccccc2)CC1` (stereo not shown) [Compound 70] it is 3.4 µM.
The value for `CC(=O)OCC(=O)Nc1nnc(CCSCCc2nnc(NC(=O)CO)s2)s1` [Compound 254] was above 20 µM; that for `O=C(CC(C(=O)O)c1ccccc1)Nc1nnc(CCCCc2nnc(NC(=O)CC(C(=O)O)c3ccccc3)s2)s1` (stereo not shown) [Compound 177] was 1.1 µM; that for `NCCC(C(=O)Nc1nnc(CCSCCc2nnc(NC(=O)C(CN)c3ccccc3)s2)s1)c1ccccc1` (stereo not shown) [Compound 214] was 0.82 µM.
